Results: ChEMBL document CHEMBL1136487, “Novel non-vanilloid VR1 antagonist of high analgesic effects and its structural requirement for VR1 antagonistic effects” (Bioorg Med Chem Lett, 2003)

Biological target: Vanilloid receptor (Rattus norvegicus, UniProt Q9ERZ8+Q9WUD2+O35433)
Test: Inhibition of [Ca2+] uptake in dorsal root ganglion (DRG) neurons from neonatal Sprague-Dawley rat
Type: functional, tissue-based

IC50 [nM]	Structure (SMILES)
590	Oc1cc2c(cc1O)CN(C(=S)NCCc1ccc(Cl)cc1)CCC2 [CAPSAZEPINE]
> 30000	CC(C)(C)c1ccc(C/N=C(\S)NCc2cccc(F)c2)cc1
37	CC(C)(C)c1ccc(CNC(=S)NCc2ccc(NS(C)(=O)=O)c(F)c2)cc1
